# Read-outs that look alike come from different tables or passages of the source.
# Experiments:
# KARN cells (Jurkat 2C4) = test: cells; type: cell-based; details: Homo sapiens, Jurkat
# Procedure, shortened: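 Jurkat 2C4 (KARN) cells dosed with test compounds up to 40 μM final, 0.4% DMSO, overnight at 5% CO2; luciferase read by Steady-Glo luminescence after 10 min at room temperature. DMSO set as 0% and 2 μM SAHA as 100% induction; 4-parameter fit of percent activation.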
# Recombinant human HDAC1 = biological target: T1, Recombinant human HDAC1 (Homo sapiens, UniProt Q13547); test: Human HDAC enzyme inhibitor Fluor-de-Lys assay, HDAC1; type: biochemical
# T1 construct: FLAG (C); made in house
# T1 sequence (Q13547 whole entry): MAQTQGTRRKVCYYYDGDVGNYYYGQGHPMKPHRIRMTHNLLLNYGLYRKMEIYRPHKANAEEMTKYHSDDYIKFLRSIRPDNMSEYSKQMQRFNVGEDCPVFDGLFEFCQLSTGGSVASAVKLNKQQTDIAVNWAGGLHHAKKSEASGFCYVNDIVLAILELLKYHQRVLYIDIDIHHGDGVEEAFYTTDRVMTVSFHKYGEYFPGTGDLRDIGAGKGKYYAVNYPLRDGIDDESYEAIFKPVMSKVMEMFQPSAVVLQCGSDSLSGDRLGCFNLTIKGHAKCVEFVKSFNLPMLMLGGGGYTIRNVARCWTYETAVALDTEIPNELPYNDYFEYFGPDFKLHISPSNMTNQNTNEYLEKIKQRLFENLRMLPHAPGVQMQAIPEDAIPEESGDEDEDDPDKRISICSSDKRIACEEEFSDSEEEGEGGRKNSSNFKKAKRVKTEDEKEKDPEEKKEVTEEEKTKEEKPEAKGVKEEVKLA
# Procedure, shortened: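 Fluor-de-Lys format at room temperature (23° C.): compounds titrated 10-point, 1:3, preincubated with HDAC before substrate addition; HDAC1 run at 0.3 nM enzyme with 20 μM BML-KI104. Developer with excess HDAC inhibitor ends the reaction, and trypsin-liberated AMC fluorescence is the read-out.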
# [1] = read-out: Karn EC50 (nM) 0.1% NHS, 0.1% normal human serum, luciferase induction, 100% = 2 μM SAHA
# [2] = read-out: Karn EC50 (nM) 5% NHS, 5% normal human serum, luciferase induction, 100% = 2 μM SAHA
# [3] = recombinant human HDAC1, Fluor-de-Lys assay
# [4] = read-out: Karn EC50 (nM) 0.1% NHS, 0.1% normal human serum
# [5] = read-out: Karn EC50 (nM) 5% NHS, 5% normal human serum
SMILES,EC50 (KARN cells (Jurkat 2C4); [1]) [nM],EC50 (KARN cells (Jurkat 2C4); [2]) [nM],IC50 (Recombinant human HDAC1; [3]) [nM],EC50 (KARN cells (Jurkat 2C4); [4]) [nM],EC50 (KARN cells (Jurkat 2C4); [5]) [nM],IC50 (Recombinant human HDAC1) [nM]
CCC(=O)CCCCC[C@H](NC(=O)C1=NOC2(CCN(CC)CC2)C1)c1ncc(-c2cc3ccc(C)nc3cc2F)[nH]1 [Compound 233],166,230,3.59,–,–,–
"CCC(=O)CCCCC[C@H](NC(=O)C1=NOC2(CCN(C)CC2)C1)c1ncc(-c2ccc(-c3cccnc3)cc2OC)o1 [Compound 222, N-{(1S)-1-[5-(2-methoxy-4-pyridin-3-ylphenyl)-1,3-oxazol-2-yl]-7-oxononyl}-8-methyl-1-oxa-2,8-diazaspiro[4.5]dec-2-ene-3-carboxamide]",298,364,1.61,–,–,–
"CCC(=O)CCCCC[C@H](NC(=O)[C@H]1CC12CCN(C)CC2)c1ncc(-c2ccc3nc(C(F)(F)F)ccc3c2)o1 [Compound 78, (1S)-6-methyl-N-[(1S)-7-oxo-1-{5-[2-(trifluoromethyl)quinolin-6-yl]-1,3-oxazol-2-yl}nonyl]-6-azaspiro[2.5]octane-1-carboxamide]",–,–,–,911,1440,18.3
CCC(=O)CCCCC[C@H](NC(=O)CC1CC2(CNC2)C1)c1nnc(-c2cc3ccccc3nc2OC)o1 [Compound 301],24200,–,24.6,–,–,–
CCC(=O)CCCCC[C@H](NC(=O)C1CCC2(CC1)CNC2)c1nnc(-c2cc3ccccc3nc2OC)o1 [Compound 299],7000,9270,12.2,–,–,–
CCC(=O)CCCCC[C@H](NC(=O)C1=NOC2(CCN(CC3CC3)CC2)C1)c1ncc(-c2cc3ccc(C)nc3cc2F)[nH]1 [Compound 234],160,262,0.56,–,–,–
CCC(=O)CCCCC[C@H](NC(=O)[C@H]1CC12CCN(C)CC2)c1ncc(-c2cnc(OC)nc2)[nH]1 [Compound 255],13300,14800,168,–,–,–
CCC(=O)CCCCC[C@H](NC(=O)[C@H]1CC12CCN(CC)CC2)c1ncc(-c2ccc(-c3nccs3)cc2)o1 [Compound 93],–,–,–,688,736,7.15
CCC(=O)CCCCC[C@H](NC(=O)[C@H]1CC12CCN(CC1CC1)CC2)c1ncc(-c2cc3ccc(C)nc3cc2F)[nH]1 [Compound 228],22,22,0.12,–,–,–
CCC(=O)CCCCC[C@H](NC(=O)[C@H]1CC12CCN(C(C)C)CC2)c1ncc(-c2ccc3c(ccc(=O)n3C)c2)o1 [Compound 96],–,–,–,1370,1510,6.9
CCC(=O)CCCCC[C@H](NC(=O)[C@H]1CC12CCN(C)CC2)c1ncc(-c2cnc3c(c2)ncn3C)[nH]1 [Compound 256],23700,> 40000,74.6,–,–,–
CCC(=O)CCCCC[C@H](NC(=O)CC1CC2(C1)CN(C)C2)c1ncc(-c2cc3ccccc3nc2O)[nH]1 [Compound 326],2400,3820,3.27,–,–,–
CCC(=O)CCCCC[C@H](NC(=O)[C@H]1CC12CCN(C)CC2)c1nnc(-c2cc3ccccc3nc2OC)o1 [Compound 306],690,691,12.9,–,–,–
CCC(=O)CCCCC[C@H](NC(=O)C1(N)CC2(CN(C)C2)C1)c1ncc(-c2cc3ccccc3nc2OC)[nH]1 [Compound 276],1560,4780,1.56,–,–,–
CCC(=O)CCCCC[C@H](NC(=O)[C@H]1CC12CCN(C)CC2)c1ncc(-c2ccc3c(c2)c2ccccc2n3C)[nH]1 [Compound 265],142,370,5.14,–,–,–
CCC(=O)CCCCC[C@H](NC(=O)[C@H]1CC12CCN(C)CC2)c1ncc(-c2ccc3nc(C)ccc3c2)o1 [Compound 80],–,–,–,435,501,2.89
CCC(=O)CCCCC[C@H](NC(=O)C1NC(=O)CC12CN(C)C2)c1ncc(-c2cc3ccccc3nc2OC)[nH]1 (some centres unmarked) [Compound 317],591,1720,0.87,–,–,–
CCC(=O)CCCCC[C@H](NC(=O)[C@H]1CC12CCN(C)CC2)c1ncc(-c2ccc(-n3nc(C)cc3C)cc2)[nH]1 [Compound 260],717,913,13.1,–,–,–
CCC(=O)CCCCC[C@H](NC(=O)[C@H]1CC12CCN(C)CC2)c1ncc(-c2cnc(-n3cc(C)cn3)nc2)[nH]1 [Compound 257],8080,10600,64.8,–,–,–
CCC(=O)CCCCC[C@H](NC(=O)C1=NOC2(CCN(C)CC2)C1)c1ncc(-c2cc3cccnc3cc2OC)o1 [Compound 223],272,559,1.54,–,–,–
CCC(=O)CCCCC[C@H](NC(=O)C1CC12CCN(CC)CC2)c1nc(-c2ccc(F)cc2)[nH]c1-c1cnc(OC)nc1 (some centres unmarked) [Compound 247],9640,10800,39,–,–,–

# Source: patent publication US12590099B2, “Inhibitors of histone deacetylase useful for the treatment or prevention of HIV infection” (Merck Sharp & Dohme LLC, priority 2018, dated 2026)
